In the CheMixHub viscosity set:

Experiment: xn = mol fraction of the nth substance listed

CCCC(C)=O + CCCCN(CCCC)CCCC
viscosity [mPa·s], 101 kPa
Details	298.15 K	303.15 K	308.15 K
x2 = 0.0499	0.49	0.465	0.436
x2 = 0.1	0.521	0.49	0.462
x2 = 0.1499	0.554	0.521	0.491
x2 = 0.2	0.588	0.551	0.519
x2 = 0.2498	0.624	0.584	0.547
x2 = 0.3	0.66	0.614	0.575
x2 = 0.3999	0.735	0.681	0.636
x2 = 0.4997	0.81	0.75	0.698
x2 = 0.5997	0.889	0.821	0.764
x2 = 0.7002	0.974	0.898	0.832
x2 = 0.7997	1.065	0.977	0.902
x2 = 0.8463	1.108	1.02	0.936
x2 = 0.899	1.165	1.064	0.979
x2 = 0.956	1.227	1.118	1.025

CCN(CC)CC + CCCCO
303.15 K, 101 kPa
Details	viscosity [mPa·s]
x1 = 0.01087	2.223
x1 = 0.02221	2.193
x1 = 0.0326	2.162
x1 = 0.04176	2.133
x1 = 0.05247	2.098
x1 = 0.06249	2.076
x1 = 0.07262	2.052
x1 = 0.08419	2.019
x1 = 0.09512	1.991

ClC(Cl)(Cl)Cl + CCCCO
Details	viscosity [mPa·s]
298.15 K, 101 kPa, x2 = 0.0326	0.903
298.15 K, 101 kPa, x2 = 0.0846	0.92
298.15 K, 101 kPa, x2 = 0.1	0.918
298.15 K, 101 kPa, x2 = 0.19	0.975
298.15 K, 101 kPa, x2 = 0.2668	1.058
298.15 K, 101 kPa, x2 = 0.27	1.046
298.15 K, 101 kPa, x2 = 0.34	1.135
298.15 K, 101 kPa, x2 = 0.425	1.293
298.15 K, 101 kPa, x2 = 0.4916	1.42
298.15 K, 101 kPa, x2 = 0.58	1.56
298.15 K, 101 kPa, x2 = 0.629	1.778
298.15 K, 101 kPa, x2 = 0.67	1.794
298.15 K, 101 kPa, x2 = 0.6978	1.88
298.15 K, 101 kPa, x2 = 0.76	1.979
298.15 K, 101 kPa, x2 = 0.7789	2.078
298.15 K, 101 kPa, x2 = 0.836	2.291
298.15 K, 101 kPa, x2 = 0.89	2.325
298.15 K, 101.32 kPa, x2 = 0.09917	0.919
298.15 K, 101.32 kPa, x2 = 0.1956	0.972
298.15 K, 101.32 kPa, x2 = 0.3011	1.074
298.15 K, 101.32 kPa, x2 = 0.3746	1.163
298.15 K, 101.32 kPa, x2 = 0.5434	1.464
298.15 K, 101.32 kPa, x2 = 0.5847	1.552
298.15 K, 101.32 kPa, x2 = 0.687	1.806
298.15 K, 101.32 kPa, x2 = 0.7888	2.065
298.15 K, 101.32 kPa, x2 = 0.8923	2.329
303.15 K, 101 kPa, x2 = 0.0559	0.8424
303.15 K, 101 kPa, x2 = 0.057	0.8423
303.15 K, 101 kPa, x2 = 0.1084	0.8543
303.15 K, 101 kPa, x2 = 0.1137	0.856
303.15 K, 101 kPa, x2 = 0.1851	0.8882
303.15 K, 101 kPa, x2 = 0.1887	0.8907
303.15 K, 101 kPa, x2 = 0.2871	0.9679
303.15 K, 101 kPa, x2 = 0.3823	1.076
303.15 K, 101 kPa, x2 = 0.4772	1.215
303.15 K, 101 kPa, x2 = 0.5086	1.268
303.15 K, 101 kPa, x2 = 0.6468	1.527
303.15 K, 101 kPa, x2 = 0.6792	1.593
303.15 K, 101 kPa, x2 = 0.7591	1.764
303.15 K, 101 kPa, x2 = 0.8416	1.943
303.15 K, 101 kPa, x2 = 0.893	2.054
303.15 K, 101 kPa, x2 = 0.9516	2.176
303.15 K, 101 kPa, x2 = 0.9563	2.186
303.15 K, 101.3 kPa, x1 = 0.7915	1.005
308.15 K, 101 kPa, x2 = 0.0846	0.801
308.15 K, 101 kPa, x2 = 0.2668	0.902
308.15 K, 101 kPa, x2 = 0.629	1.372
308.15 K, 101 kPa, x2 = 0.6978	1.487
308.15 K, 101 kPa, x2 = 0.7789	1.647
308.15 K, 101 kPa, x2 = 0.836	1.76
318.15 K, 101 kPa, x2 = 0.0326	0.684
318.15 K, 101 kPa, x2 = 0.0846	0.692
318.15 K, 101 kPa, x2 = 0.2668	0.773
318.15 K, 101 kPa, x2 = 0.425	0.883
318.15 K, 101 kPa, x2 = 0.4916	0.95
318.15 K, 101 kPa, x2 = 0.629	1.116
318.15 K, 101 kPa, x2 = 0.6978	1.189
318.15 K, 101 kPa, x2 = 0.7789	1.313
318.15 K, 101 kPa, x2 = 0.836	1.416

CCCOC(C)=O + CCCCOC(C)=O
viscosity [mPa·s], 101 kPa
Details	x1 = 0.2	x1 = 0.4	x1 = 0.6	x1 = 0.8
293.15 K	0.697	0.67	0.644	0.618
313.15 K	0.538	0.519	0.5	0.481

ClC(Cl)(Cl)Cl + CCCCOC(C)=O
101.33 kPa
Details	viscosity [mPa·s]
303.15 K, x1 = 0.1942	0.664
303.15 K, x1 = 0.3145	0.685
303.15 K, x1 = 0.4207	0.702
303.15 K, x1 = 0.5252	0.72
303.15 K, x1 = 0.5754	0.732
303.15 K, x1 = 0.7049	0.759
303.15 K, x1 = 0.7537	0.774
303.15 K, x1 = 0.8196	0.788
303.15 K, x1 = 0.8765	0.803
303.15 K, x1 = 0.9415	0.823
313.15 K, x1 = 0.2041	0.587
313.15 K, x1 = 0.4028	0.619
313.15 K, x1 = 0.5068	0.634
313.15 K, x1 = 0.604	0.651
313.15 K, x1 = 0.8058	0.695

CCN(CC)CC + CCCCOCCO
viscosity [mPa·s], 100 kPa
Details	298.15 K	303.15 K	308.15 K
x2 = 0.0506	0.431	0.407	0.383
x2 = 0.1002	0.51	0.474	0.447
x2 = 0.1499	0.598	0.553	0.518
x2 = 0.2	0.689	0.632	0.594
x2 = 0.3001	0.875	0.802	0.75
x2 = 0.3999	1.097	0.99	0.922
x2 = 0.5001	1.35	1.212	1.122
x2 = 0.6	1.632	1.457	1.342
x2 = 0.6996	1.946	1.714	1.576
x2 = 0.7994	2.254	1.979	1.809
x2 = 0.8995	2.578	2.264	2.058
x2 = 0.9498	2.724	2.392	2.174

ClC(Cl)(Cl)Cl + CCCCOCCO
298.15 K, 101.3 kPa
Details	viscosity [mPa·s]
x2 = 0.0054	0.913
x2 = 0.0106	0.919
x2 = 0.0262	0.918
x2 = 0.0778	0.968
x2 = 0.1296	1.035
x2 = 0.1914	1.125
x2 = 0.2889	1.283
x2 = 0.3826	1.47
x2 = 0.4809	1.687
x2 = 0.5388	1.81
x2 = 0.5933	1.935
x2 = 0.6963	2.162
x2 = 0.7923	2.385
x2 = 0.8841	2.589
x2 = 0.9631	2.759
